Source: patent US20260347364A1, “PYRAZOLO[4,3-F]QUINAZOLINE DERIVATIVES AS MODULATORS OF G12D MUTANT KRAS USEFUL FOR THE TREATMENT OF CANCER” (JAZZ PHARMACEUTICALS IRELAND LTD., priority 2023, published 2026)

How the values were obtained:
KRAS G12D = biological target: T1, KRAS G12D (Homo sapiens, UniProt P01116, G12D); assay: HTRF nucleotide exchange assay, KRAS G12D; type: biochemical; conditions: HTRF nucleotide exchange assay (NEA), class symbols
T1 construct: aa1-188 KRAS WT, HRAS WT, NRAS WT, or KRAS containing the G12D

KRAS WT = biological target: T2, KRAS WT (Homo sapiens, UniProt P01116); assay: HTRF nucleotide exchange assay, KRAS WT; type: biochemical; conditions: HTRF nucleotide exchange assay (NEA), class symbols
T2 construct: aa1-188 KRAS WT
T2 sequence (P01116 1-188 isoform P01116-2): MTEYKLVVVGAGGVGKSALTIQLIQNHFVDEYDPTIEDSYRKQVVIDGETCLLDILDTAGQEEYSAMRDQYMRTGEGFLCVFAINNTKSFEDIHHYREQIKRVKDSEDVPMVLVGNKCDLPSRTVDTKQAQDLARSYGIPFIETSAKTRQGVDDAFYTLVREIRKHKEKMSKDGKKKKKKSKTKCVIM

T1 sequence (P01116 1-188 isoform P01116-2 G12D): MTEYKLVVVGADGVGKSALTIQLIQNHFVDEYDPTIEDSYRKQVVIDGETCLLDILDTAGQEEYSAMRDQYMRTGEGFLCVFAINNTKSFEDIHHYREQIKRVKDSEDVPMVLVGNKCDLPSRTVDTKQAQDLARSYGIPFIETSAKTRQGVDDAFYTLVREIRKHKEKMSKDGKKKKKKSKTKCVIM

IC50 (KRAS G12D) | IC50 (KRAS WT) | Compound
≤ 0.01 µM | ≤ 0.01 µM | CCc1c(F)ccc2cc(O)cc(-c3c(F)c4nc(OCC5(CN(C)C)CCC5)nc(N5CCOCC(C)(O)C5)c4c4cn(C)nc34)c12 (stereo not shown) [Example 222, 4-[7-[[1-[(dimethylamino)methyl]cyclobutyl]methoxy]-4-(8-ethyl-7-fluoro-3-hydroxy-1-naphthyl)-5-fluoro-2-methyl-pyrazolo[4,3-f]quinazolin-9-yl]-6-methyl-1,4-oxazepan-6-ol]
≤ 0.01 µM | ≤ 0.01 µM | CCc1c(F)ccc2cc(O)cc(-c3c(F)c4nc(OC[C@@]56CCCN5C[C@H](F)C6)nc(N5CCOCC(O)C5)c4c4cn(C)nc34)c12 (stereo partly drawn) [Example 223, 4-[4-(8-ethyl-7-fluoro-3-hydroxy-1-naphthyl)-5-fluoro-7-[[(2R,8S)-2-fluoro-1,2,3,5,6,7-hexahydropyrrolizin-8-yl]methoxy]-2-methyl-pyrazolo[4,3-f]quinazolin-9-yl]-1,4-oxazepan-6-ol]
≤ 0.01 µM | 0.01 to 0.1 µM | CCc1c(F)ccc2cc(O)cc(-c3c(F)c4nc(OCCC5CN(C)CCO5)nc(N5CCOCC(C)(O)C5)c4c4cn(C)nc34)c12 (stereo not shown) [Example 224, 4-[4-(8-ethyl-7-fluoro-3-hydroxy-1-naphthyl)-5-fluoro-2-methyl-7-[2-(4-methylmorpholin-2-yl)ethoxy]pyrazolo[4,3-f]quinazolin-9-yl]-6-methyl-1,4-oxazepan-6-ol]
≤ 0.01 µM | ≤ 0.01 µM | CCc1c(F)ccc2cc(O)cc(-c3c(F)c4nc(OCC5(CN6CCC(CC#N)CC6)CC5)nc(N5CCOCC(C)(O)C5)c4c4cn(C)nc34)c12 (stereo not shown) [Example 225, 2-[1-[[1-[[4-(8-ethyl-7-fluoro-3-hydroxy-1-naphthyl)-5-fluoro-9-(6-hydroxy-6-methyl-1,4-oxazepan-4-yl)-2-methyl-pyrazolo[4,3-f]quinazolin-7-yl]oxymethyl]cyclopropyl]methyl]-4-piperidyl]acetonitrile]
≤ 0.01 µM | ≤ 0.01 µM | CCc1c(F)ccc2cc(O)cc(-c3c(F)c4nc(OCC5(CN6CCC7(CCOCC7)C6)CC5)nc(N5CCOCC(C)(O)C5)c4c4cn(C)nc34)c12 (stereo not shown) [Example 228, 4-[4-(8-ethyl-7-fluoro-3-hydroxy-1-naphthyl)-5-fluoro-2-methyl-7-[[1-(8-oxa-2-azaspiro[4.5]decan-2-ylmethyl)cyclopropyl]methoxy]pyrazolo[4,3-f]quinazolin-9-yl]-6-methyl-1,4-oxazepan-6-ol]
≤ 0.01 µM | ≤ 0.01 µM | CCc1c(F)ccc2cc(O)cc(-c3c(F)c4nc(OCC5(CN6CCC(F)(F)CC6)CC5)nc(N5CCOCC(C)(O)C5)c4c4cn(C)nc34)c12 (stereo not shown) [Example 229, 4-[7-[[1-[(4,4-difluoro-1-piperidyl)methyl]cyclopropyl]methoxy]-4-(8-ethyl-7-fluoro-3-hydroxy-1-naphthyl)-5-fluoro-2-methyl-pyrazolo[4,3-f]quinazolin-9-yl]-6-methyl-1,4-oxazepan-6-ol]
≤ 0.01 µM | ≤ 0.01 µM | CCc1c(F)ccc2cc(O)cc(-c3c(F)c4nc(OCC5(CN(C)C)CC5)nc(N5CCC[C@@](C)(O)C5)c4c4cn(C)nc34)c12 [Example 230, (3R)-1-[7-[[1-[(dimethylamino)methyl]cyclopropyl]methoxy]-4-(8-ethyl-7-fluoro-3-hydroxy-1-naphthyl)-5-fluoro-2-methyl-pyrazolo[4,3-f]quinazolin-9-yl]-3-methyl-piperidin-3-ol]
≤ 0.01 µM | ≤ 0.01 µM | CCc1c(F)ccc2cc(O)cc(-c3c(F)c4nc(OCC5(CN6CC[C@H](F)C6)CC5)nc(N5CCOCC(C)(O)C5)c4c4cn(C)nc34)c12 (stereo partly drawn) [Example 231, 4-[4-(8-ethyl-7-fluoro-3-hydroxy-1-naphthyl)-5-fluoro-2-methyl-7-[[1-[[(3S)-3-fluoropyrrolidin-1-yl]methyl]cyclopropyl]methoxy]pyrazolo[4,3-f]quinazolin-9-yl]-6-methyl-1,4-oxazepan-6-ol]
0.01 to 0.1 µM | 0.01 to 0.1 µM | CCc1c(F)ccc2cc(O)cc(-c3c(F)c4nc(OCC5COCCN5C)nc(N5CCOCC(C)(O)C5)c4c4cn(C)nc34)c12 (stereo not shown) [Example 232, 4-[4-(8-ethyl-7-fluoro-3-hydroxy-1-naphthyl)-5-fluoro-2-methyl-7-[(4-methylmorpholin-3-yl)methoxy]pyrazolo[4,3-f]quinazolin-9-yl]-6-methyl-1,4-oxazepan-6-ol]
≤ 0.01 µM | 0.01 to 0.1 µM | CCc1c(F)ccc2cc(O)cc(-c3c(F)c4nc(OCC5COCCN5)nc(N5CCOCC(C)(O)C5)c4c4cn(C)nc34)c12 (stereo not shown) [Example 233, 4-[4-(8-ethyl-7-fluoro-3-hydroxy-1-naphthyl)-5-fluoro-2-methyl-7-(morpholin-3-ylmethoxy)pyrazolo[4,3-f]quinazolin-9-yl]-6-methyl-1,4-oxazepan-6-ol]
≤ 0.01 µM | 0.01 to 0.1 µM | CCc1c(F)ccc2cc(O)cc(-c3c(C)c4nc(OC[C@]5(C)CCCN5C)nc(N5CCC[C@@](C)(O)C5)c4c4cn(C)nc34)c12 [Example 234]
≤ 0.01 µM | ≤ 0.01 µM | CCc1c(F)ccc2cc(O)cc(-c3c(F)c4nc(OCC56CCCN5CC(=C(F)F)C6)nc(N5CCOCC(C)(O)C5)c4c4cn(C)nc34)c12 (stereo not shown) [Example 235, 4-[7-[[6-(difluoromethylene)-2,3,5,7-tetrahydro-1H-pyrrolizin-8-yl]methoxy]-4-(8-ethyl-7-fluoro-3-hydroxy-1-naphthyl)-5-fluoro-2-methyl-pyrazolo[4,3-f]quinazolin-9-yl]-6-methyl-1,4-oxazepan-6-ol]
≤ 0.01 µM | ≤ 0.01 µM | CCc1c(F)ccc2cc(O)cc(-c3c(F)c4nc(OC[C@@]5(CN(C)C)CC5(F)F)nc(N5CCOCC(C)(O)C5)c4c4cn(C)nc34)c12 (stereo partly drawn) [Example 236, 4-[4-(8-ethyl-7-fluoro-3-hydroxy-1-naphthyl)-5-fluoro-2-methyl-7-[[(1S)-1-[(dimethylamino)methyl]-2,2-difluoro-cyclopropyl]methoxy]pyrazolo[4,3-f]quinazolin-9-yl]-6-methyl-1,4-oxazepan-6-ol]
0.01 to 0.1 µM | 0.1 to 10 µM | CCc1c(F)ccc2cc(O)cc(-c3c(C)c4nc(OCC5(CF)COC5)nc(N5CC6CCC5CN6)c4c4cn(C)nc34)c12 (stereo not shown) [Example 240, 4-[9-(2,5-diazabicyclo[2.2.2]octan-2-yl)-7-[[3-(fluoromethyl)oxetan-3-yl]methoxy]-2,5-dimethyl-pyrazolo[4,3-f]quinazolin-4-yl]-5-ethyl-6-fluoro-naphthalen-2-ol]
≤ 0.01 µM | 0.1 to 10 µM | CCc1c(F)ccc2cc(O)cc(-c3c(C)c4nc(OCC5(C#N)CCOC5)nc(N5CC6CCC(C5)N6)c4c4cn(C)nc34)c12 (stereo not shown) [Example 241, 3-[[9-(3,8-diazabicyclo[3.2.1]octan-3-yl)-4-(8-ethyl-7-fluoro-3-hydroxy-1-naphthyl)-2,5-dimethyl-pyrazolo[4,3-f]quinazolin-7-yl]oxymethyl]tetrahydrofuran-3-carbonitrile]
≤ 0.01 µM | 0.1 to 10 µM | CCc1c(F)ccc2cc(O)cc(-c3c(C)c4nc(OCC5(CO)CC5)nc(N5CC6CCC(C5)N6)c4c4cn(C)nc34)c12 [Example 242, 4-[9-(3,8-diazabicyclo[3.2.1]octan-3-yl)-7-[[1-(hydroxymethyl)cyclopropyl]methoxy]-2,5-dimethyl-pyrazolo[4,3-f]quinazolin-4-yl]-5-ethyl-6-fluoro-naphthalen-2-ol]
≤ 0.01 µM | ≤ 0.01 µM | CCc1c(F)ccc2cc(O)cc(-c3c(C)c4nc(OC[C@@]56CCCN5C[C@H](F)C6)nc(N5CCCn6nc(COC)cc6C5)c4c4cn(C)nc34)c12 [Example 243]
0.1 to 10 µM | 0.1 to 10 µM | CCc1c(F)ccc2cc(O)cc(-c3c(F)c4nc(OCC5(C#N)CCOC5)nc(N5CCCNC(=O)C5)c4c4cn(C)nc34)c12 (stereo not shown) [Example 244, 3-[[4-(8-ethyl-7-fluoro-3-hydroxy-1-naphthyl)-5-fluoro-2-methyl-9-(3-oxo-1,4-diazepan-1-yl)pyrazolo[4,3-f]quinazolin-7-yl]oxymethyl]tetrahydrofuran-3-carbonitrile]
≤ 0.01 µM | ≤ 0.01 µM | CCc1c(F)ccc2cc(O)cc(-c3c(F)c4nc(OCC5(CN(C)C)CC5)nc(N5CCOC[C@@](C)(O)C5)c4c4cn(C)nc34)c12 [Example 245, (6S)-4-[7-[[1-[(dimethylamino)methyl]cyclopropyl]methoxy]-4-(8-ethyl-7-fluoro-3-hydroxy-1-naphthyl)-5-fluoro-2-methyl-pyrazolo[4,3-f]quinazolin-9-yl]-6-methyl-1,4-oxazepan-6-ol]
≤ 0.01 µM | ≤ 0.01 µM | CCc1c(F)ccc2cc(O)cc(-c3c(F)c4nc(OCC5(CN6CC(C)OC(C)C6)CC5)nc(N5CCOCC(C)(O)C5)c4c4cn(C)nc34)c12 (stereo not shown) [Example 246, 4-[7-[[1-[(2,6-dimethylmorpholin-4-yl)methyl]cyclopropyl]methoxy]-4-(8-ethyl-7-fluoro-3-hydroxy-1-naphthyl)-5-fluoro-2-methyl-pyrazolo[4,3-f]quinazolin-9-yl]-6-methyl-1,4-oxazepan-6-ol]
